Laboratory results: patent US20240216410A1, “METHODS AND COMPOSITIONS FOR TREATING CANCER THERAPY-INDUCED NEUTROPENIC FEVER AND/OR GVHD” (BOARD OF REGENTS, THE UNIVERSITY OF TEXAS SYSTEM, priority 2021, published 2024)
Entries after “also recorded” stand apart in the source; their conditions may differ.

Assays:
intestinal microbiota [1] = test: Fecal bacterial density by 16S rRNA gene qPCR in normal mice given meropenem in drinking water; type: in vivo; conditions: 0.625 g/L meropenem in drinking water
Protocol: To further explore a potential causal relationship between meropenem and intestinal GVHD, the effects of meropenem on GVHD in a mouse model of allo-HSCT were examined. A method of administering meropenem to mice was first developed that would better mimic the effects of meropenem on the intestinal microbiome of patients, which is typically given every 8 hours intravenously. Previously, antibiotics were administered subcutaneously to mice (25), and meropenem concentrations were quantified in the cecal lumen of mice 4, 8, 24, 48 and 96 hours after subcutaneous injection. […] Next, drinking water was evaluated as a means of continuously administering meropenem to mice, using bacterial density quantified by 16S ribosomal RNA (16S rRNA) gene quantitative PCR (qPCR) to gauge reductions of the intestinal microbiota.
Quantification of fecal bacterial density. Genomic DNA was isolated from stool as described above. qPCR was performed as previously described (66). In brief, 16S rRNA gene sequences were amplified from total fecal DNA using the primers 926F (5′-[…]-3′, where K is a G or a T; SEQ ID NO:2) and 1062R (5′-[…]-3′, where R is an A or a G; SEQ ID NO:3). […] To determined bacterial density, a plasmid with a 16S rRNA gene of a murine Blautia isolate was generated in the pCR4 backbone and used as a standard.

[2] = Murine GVHD model: colonic luminal carbohydrates by acid hydrolysis and IC-MS; type: in vivo; conditions: day 18; mice with GVHD
Source text: BT is known to be a versatile utilizer of a variety of carbohydrate sources derived from the diet, including xylose via the xylose isomerase pathway, as well as host glycans. […] Host mucin glycans are particularly low on the metabolic hierarchy and are typically targeted only after other dietary polysaccharides have been depleted (43). […] Thus, in some embodiments, levels of soluble carbohydrates in the colonic lumen may be perturbed by meropenem treatment, given that it is shown herein that meropenem depletes the abundance of commensal Clostridia, which function to metabolize dietary fibers and starches (45). Using acid hydrolysis followed by ion chromatography-mass spectrometry (IC-MS), levels of monosaccharide subunits comprising soluble luminal polysaccharides were characterized in the colon of mice.
Carbohydrates analysis by IC-MS. To determine the relative abundance of carbohydrates in mouse feces samples, extracts were prepared and analyzed by ultra-HRMS. Fecal pellets were homogenized with a […]® Tissue Homogenizer. Metabolites were extracted using 1 mL ice-cold 80/20 (v/v) methanol/water. Extracts were centrifuged at 17,000 g for 5 min at 4° C., and supernatants were transferred to clean tubes, followed by evaporation to dryness under nitrogen. Dried extracts were reconstituted in deionized water, and 5 μL was injected for analysis by IC-MS. […]

intestinal microbiota [3] = test: Murine GVHD model: fecal microbiome composition (16S rRNA sequencing) and bacterial density (qPCR); type: in vivo, mice
Protocol: Effects of meropenem treatment on the composition of the intestinal microbiota of allo-HSCT mice were also examined (FIG. 15F).
Sequencing of 16S rRNA gene amplicons. Fecal samples from patients and mice were weighed before DNA isolation. In brief, genomic DNA was isolated using the QIAAMP® DNA mini kit (51306, QIAGEN®) according to the manufacturer's protocol that was modified to include an intensive bead-beating lysis step. The V4 region of 16S rRNA gene was amplified by PCR from 100 ng of each of extracted and purified genomic DNA using 515 forward and 806 reverse primer pairs (59). The quality and quantity of the barcoded amplicons were assessed on an Agilent 4200 TapeStation system (Agilent) and QUBIT™ Fluorometer (THERMO FISHER […]™), and libraries were prepared after pooling at equimolar ratios. The final libraries were purified using […]® gel extraction kit (28706X4, QIAGEN®) and sequenced with a 2×250 base pair paired-end protocol on the […]® MISEQ™ platform.
Microbiome data analysis. Sequencing data from paired-end reads were de-multiplexed using QIIME 2 (60). Merging of paired-end reads, dereplicating, and length filtering was performed using VSEARCH 2.17.1 (61). Following de-noising and chimera calling using the unoise3 command (62), unique sequences were taxonomically classified with mothur (63) using the Silva database (64) version 138. Weighted UniFrac distances (65) were determined using QIIME 2, visualized using principal coordinate analysis, and evaluated for statistical significance using permutational multivariate analysis of variance (PERMANOVA) testing. For differential abundance analysis, abundances of sequences belonging to taxonomical groups were included for analysis using the Mann-Whitney U test and adjusted for multiple comparisons using the method of Benjamini and Hochberg. Paired samples were analyzed using the Wilcoxon signed rank test with adjustment for multiple comparisons.
Quantification of fecal bacterial density. Genomic DNA was isolated from stool as described above. qPCR was performed as previously described (66). In brief, 16S rRNA gene sequences were amplified from total fecal DNA using the primers 926F (5′-[…]-3′, where K is a G or a T; SEQ ID NO:2) and 1062R (5′-[…]-3′, where R is an A or a G; SEQ ID NO:3). Real-time PCR were carried out in 96-well optical plates on QUANTSTUDIO™ Flex 6 RT PCR (APPLIED BIOSYSTEMS™) and KAPA SYBR® FAST Master Mix (Roche). The PCR conditions included one initial denaturing step of 10 min at 95° C. and 40 cycles of 95° C. for 20 sec and 60 °C for 1 min. Melting-curve analysis was performed after amplification. To determined bacterial density, a plasmid with a 16S rRNA gene of a murine Blautia isolate was generated in the pCR4 backbone and used as a standard.

[4] = human, in vivo
Protocol: In this study, data from 295 patients with acute myeloid leukemia (AML) or myelodysplastic syndrome (MDS) who underwent allo-HSCT with tacrolimus and methotrexate as GVHD prophylaxis following conditioning therapy with fludarabine and 5 busulfan from 2011 to 2016 were retrospectively examined. The incidence of acute intestinal GVHD until day 100 after transplant was evaluated and compared were patients who received neither cefepime nor meropenem, those who received cefepime alone, those who received meropenem alone, and those who received both cefepime and meropenem during the period from days −10 to 30 relative to allo-HSCT infusion.
Retrospective study design. 295 patients with acute myeloid leukemia (AML) or myelodysplastic syndrome (MDS) underwent allogeneic hematopoietic stem cell transplantation (allo-HSCT) with fludarabine plus busulfan as conditioning therapy and tacrolimus and methotrexate as GVHD prophylaxis from 2011 and 2016 and were analyzed retrospectively. Patients were classified by antibiotic exposures, including those who received neither cefepime nor meropenem, those who received cefepime alone, those who received meropenem alone and those who received both cefepime and meropenem from day −10 to day 30 after allo-HSCT. Acute GVHD was diagnosed by clinical and/or pathological findings, and graded according to standard criteria (56).

**Q.** With `C[C@@H](O)[C@H]1C(=O)N2C(C(=O)O)=C(S[C@@H]3CN[C@H](C(=O)N(C)C)C3)[C@H](C)[C@H]12` [meropenem] as the compound, how does the “reduction in fecal bacterial density” value (intestinal microbiota [1]) read?
**A.** Its value is “substantial one-log reduction in fecal bacterial density”.

**Q.** What about the “concentrations of soluble luminal polysaccharide monosaccharide subunits” value [2] of the same compound?
**A.** The value was “significantly lower concentrations of arabinose- and xylose-derived polysaccharides”.

**Q.** What about the “abundance of murine BT” value (intestinal microbiota [3]; allo-HSCT mice, days 0, 7, 14, 21) of the same compound?
**A.** The value was “suppressed by meropenem-supplemented drinking water but quickly expanded after cessation of meropenem therapy; also recorded: higher abundances of BT”.

**Q.** And the “abundance of Clostridia” value (intestinal microbiota [3]; allogeneic mice, days 0, 7, 14, 21)?
**A.** Its value is “significantly decreased; also recorded: depleted”.

**Q.** And the fecal bacterial density (intestinal microbiota [3]; day 14 after allo-HSCT, during meropenem treatment)?
**A.** Its fecal bacterial density is “significantly decreased bacterial density”.

**Q.** What about the fecal bacterial density (intestinal microbiota [3]; day 21, 6 days after stopping meropenem) of the same compound?
**A.** Its fecal bacterial density is “recovered to a level similar to that of untreated syngeneic and allogeneic mice”.

**Q.** And the “alpha diversity (inverse Simpson index)” value (intestinal microbiota [3]; fecal samples day 21)?
**A.** Its value is “significantly reduced”.

**Q.** What about the bacterial genera depleted (intestinal microbiota [3]; fecal samples day 21) of the same compound?
**A.** Its bacterial genera depleted is “many genera were depleted, including Blautia, Lachnoclostridium, and other members of Lachnospiraceae”.

**Q.** What about the “bacterial genera with increased abundance” value (intestinal microbiota [3]; fecal samples day 21) of the same compound?
**A.** The value was “significantly higher abundances of bacteria from several genera, including most substantially Bacteroides, as well as Enterococcus, Erysipelatoclostridium, Bifidobacterium and Akkermansia”.

**Q.** What about the “survival after allo-HSCT” value (meropenem in drinking water days 3 to 15 vs control allo-HSCT mice) of the same compound?
**A.** The value was “significantly worsened survival”.

**Q.** What about the “GVHD histological scores in the colon” value (mouse, in vivo) of the same compound?
**A.** The value was “significantly higher”.

**Q.** And the “GVHD histology in the small intestine and liver” value (mouse, in vivo)?
**A.** Its value is “not substantially different”.

**Q.** And the “epithelial damage in the colon (H&E)” value (mouse, in vivo)?
**A.** The value was “severe epithelial damage in the colon”.

**Q.** And the “Acute GVHD Grade 0, number of patients” value [4]?
**A.** The value was 13.

**Q.** What about the “Acute GVHD Grade 0, percentage of patients” value [4] of the same compound?
**A.** The value was “(41%)”.

**Q.** And the “Acute GVHD Grade I, number of patients” value [4]?
**A.** Its value is 5.

**Q.** What about the “Acute GVHD Grade I, percentage of patients” value [4] of the same compound?
**A.** Its value is “(16%)”.

**Q.** What about the “Acute GVHD Grade II, number of patients” value [4] of the same compound?
**A.** Its value is 10.

**Q.** What about the “Acute GVHD Grade II, percentage of patients” value [4] of the same compound?
**A.** The value was “(31%)”.

**Q.** And the “incidence of acute intestinal GVHD” value [4]?
**A.** Its value is “significantly higher”.

**Q.** And the “Acute GVHD Grade III-IV, number of patients” value ([4]; iv)?
**A.** The value was 4.

**Q.** And the “Acute GVHD Grade III-IV, percentage of patients” value ([4]; iv)?
**A.** Its value is “(13%)”.
